Data: patent US10889573B2, “Anthelmintic quinoline-3-carboxamide derivatives” (Bayer Animal Health GMBH, priority 2016, dated 2021)

Assay: log P by HPLC on reversed phase columns (Method L0)
Details: HPLC on reversed phase columns, Method L0
Protocol: Measurement of log P values was performed according to EEC directive 79/831 Annex V.A8 by HPLC (High Performance Liquid Chromatography) on reversed phase columns with the following methods: • ^[a] log P value is determined by measurement of LC-UV, in an acidic range, with 0.1% formic acid in water and acetonitrile as eluent (linear gradient from 10% acetonitrile to 95% acetonitrile). • ^[b] log P value is determined by measurement of LC-UV, in a neutral range, with 0.001 molar ammonium acetate solution in water and acetonitrile as eluent (linear gradient from 10% acetonitrile to 95% acetonitrile).
Calibration was done with straight-chain alkan-2-ones (with 3 to 16 carbon atoms) with known log P values (measurement of log P values using retention times with linear interpolation between successive alkanones).

| SMILES | logP (Method L0)[a] | logP (Method L0) | logP (Method L0)^[a] |
| --- | --- | --- | --- |
| CN(C)c1c(C(=O)N[C@H]2CCOc3ccccc32)cnc2c(-c3cc(Cl)cc(Cl)c3)cccc12 [Example 8] | 2.53 |  |  |
| Nc1c(C(=O)N[C@H]2CCOc3ccccc32)cnc2c(-c3cc(Cl)cc(Cl)c3)cccc12 [Example 58] | 2.11 |  |  |
| CN(C)CCNc1c(C(=O)N[C@H]2CCc3ccccc32)cnc2c(-c3cc(Cl)cc(Cl)c3)cccc12 [Example 88] | 1.3 |  |  |
| COCCNc1c(C(=O)N[C@H]2CCc3ccccc32)cnc2c(-c3cc(Cl)cc(Cl)c3)cccc12 [Example 89] | 2.2 |  |  |
| CCN(CCOC)c1c(C(=O)N[C@H]2CCc3ccccc32)cnc2c(-c3cc(Cl)cc(Cl)c3)cccc12 [Example 90] | 4.9 |  |  |
| COC[C@@H]1CCCN1c1c(C(=O)N[C@H]2CCc3ccccc32)cnc2c(-c3cc(Cl)cc(Cl)c3)cccc12 [Example 91] | 2.9 |  |  |
| COC[C@H]1CCCN1c1c(C(=O)N[C@H]2CCc3ccccc32)cnc2c(-c3cc(Cl)cc(Cl)c3)cccc12 [Example 92] | 2.9 |  |  |
| O=C(N[C@H]1CCc2ccccc21)c1cnc2c(-c3cc(Cl)cc(Cl)c3)cccc2c1NCCN1CCCC1 [Example 96] | 1.4 |  |  |
| O=C(N[C@H]1CCc2ccccc21)c1cnc2c(-c3cc(Cl)cc(Cl)c3)cccc2c1NCc1ccccn1 [Example 99-1] | 2.2 |  |  |
| CCC(CO)Nc1c(C(=O)NC2CCc3ccccc32)cnc2c(-c3cc(Cl)cc(Cl)c3)cccc12 (stereo not drawn) [Example 99-2] | 2.1 |  |  |
| O=C(N[C@H]1CCc2ccccc21)c1cnc2c(-c3cc(Cl)cc(Cl)c3)cccc2c1NCCO [Example 100] | 1.9 |  |  |
| O=C(N[C@H]1CCc2ccccc21)c1cnc2c(-c3cc(Cl)cc(Cl)c3)cccc2c1N1CC[C@@H](O)C1 [Example 101] | 1.8 |  |  |
| CN(CC1CC1)c1c(C(=O)N[C@H]2CCc3ccccc32)cnc2c(-c3cc(Cl)cc(Cl)c3)cccc12 [Example 106] | 3.7 |  |  |
| O=C(N[C@H]1CCc2ccccc21)c1cnc2c(-c3cc(Cl)cc(Cl)c3)cccc2c1N1CCC(F)(F)C1 [Example 112] | 2.6 |  |  |
| CC(=O)N1CCN(c2c(C(=O)N[C@H]3CCc4ccccc43)cnc3c(-c4cc(Cl)cc(Cl)c4)cccc23)CC1 [Example 116] | 3.4 |  |  |
| CN(C)C(=O)CCNc1c(C(=O)N[C@H]2CCc3ccccc32)cnc2c(-c3cc(Cl)cc(Cl)c3)cccc12 [Example 122] | 2 |  |  |
| O=C(N[C@H]1CCc2ccccc21)c1cnc2c(-c3cc(Cl)cc(Cl)c3)cccc2c1NCCn1cccn1 [Example 125] | 2.1 |  |  |
| C[C@H](Nc1c(C(=O)N[C@H]2CCc3ccccc32)cnc2c(-c3cc(Cl)cc(Cl)c3)cccc12)C(N)=O [Example 127] | 1.9 |  |  |
| COC(=O)CNc1c(C(=O)N[C@H]2CCc3ccccc32)cnc2c(-c3cc(Cl)cc(Cl)c3)cccc12 [Example 128] | 2.1 |  |  |
| NC(=O)CNc1c(C(=O)N[C@H]2CCc3ccccc32)cnc2c(-c3cc(Cl)cc(Cl)c3)cccc12 [Example 129] | 1.8 |  |  |
| O=C(N[C@H]1CCOc2ccccc21)c1cnc2c(-c3cc(Cl)cc(Cl)c3)cccc2c1Nc1ccncc1 [Example 136] | 2.1 |  |  |

| SMILES | logP (Method L0)[a] | logP (Method L0) | logP (Method L0)^[a] |
| --- | --- | --- | --- |
| CN(CCO)c1c(C(=O)N[C@H]2CCOc3ccccc32)cnc2c(-c3cc(Cl)cc(Cl)c3)cccc12 [Example 138] | 2.7 |  |  |
| COc1ccc2c(c1)[C@@H](NC(=O)c1cnc3c(-c4cc(Cl)cc(Cl)c4)cccc3c1N(C)C)CCO2 [Example 147] | 2.76 |  |  |
| CN(CCN1CCOCC1)c1c(C(=O)N[C@H]2CCOc3ccccc32)cnc2c(-c3cc(Cl)cc(Cl)c3)cccc12 [Example 149] | 2.2 |  |  |
| CN(C)c1c(C(=O)N[C@H]2CCOc3cc(F)ccc32)cnc2c(-c3cc(Cl)cc(Cl)c3)cccc12 [Example 152] | 3 |  |  |
| CCNc1c(C(=O)N[C@H]2CCOc3ccccc32)cnc2c(-c3cc(Cl)cc(Cl)c3)cccc12 [Example 153] | 2.1 |  |  |
| CC(C)(C)OC(=O)CNc1c(C(=O)N[C@H]2CCOc3ccccc32)cnc2c(-c3cc(Cl)cc(Cl)c3)cccc12 [Example 182] |  | 3.3 |  |
| CN(CC(=O)OC(C)(C)C)c1c(C(=O)N[C@H]2CCOc3ccccc32)cnc2c(-c3cc(Cl)cc(Cl)c3)cccc12 [Example 183] |  | 6 |  |
| CCCNc1c(C(=O)N[C@H]2CCOc3ccccc32)cnc2c(-c3cc(Cl)cc(Cl)c3)cccc12 [Example 184] |  | 3 |  |
| NCCNc1c(C(=O)N[C@H]2CCOc3ccccc32)cnc2c(-c3cc(Cl)cc(Cl)c3)cccc12 [Example 185] |  | 2 |  |
| CON(C)c1c(C(=O)N[C@H]2CCOc3ccccc32)cnc2c(-c3ccccc3Cl)cccc12 [Example 248] |  | 3.41 |  |
| CON(C)c1c(C(=O)N[C@H]2CCOc3ccccc32)cnc2c(-c3cccc(Cl)c3Cl)cccc12 [Example 249] |  | 3.99 |  |
| CON(C)c1c(C(=O)N[C@H]2CCOc3ccccc32)cnc2c(-c3cc(Cl)cc(Cl)c3)cccc12 [Example 250] |  | 4.87 |  |
| CN(c1c(C(=O)N[C@H]2CCOc3ccccc32)cnc2c(-c3ccccc3Cl)cccc12)C1CC1 [Example 252] |  | 2.23 |  |
| CN(c1c(C(=O)N[C@H]2CCOc3ccccc32)cnc2c(-c3cccc(Cl)c3Cl)cccc12)C1CC1 [Example 253] |  | 2.8 |  |
| CN(c1c(C(=O)N[C@H]2CCOc3ccccc32)cnc2c(-c3cc(Cl)cc(Cl)c3)cccc12)C1CC1 [Example 254] |  | 3.81 |  |
| CCOP(=O)(CN(C)c1c(C(=O)N[C@H]2CCOc3ccccc32)cnc2c(-c3cc(Cl)cc(Cl)c3)cccc12)OCC [Example 285] |  | 4.62 |  |
| O=C(N[C@H]1CCOc2ccccc21)c1cnc2c(-c3cc(Cl)cc(Cl)c3)cccc2c1N1CC2CC(C1)O2 [Example 300] |  | 2.6 |  |
| O=C(N[C@H]1CCOc2ccccc21)c1cnc2c(-c3cc(Cl)cc(Cl)c3)cccc2c1N1CC2COCC(C1)O2 [Example 301] |  | 3.3 |  |
| Cn1c(=O)n(C)n(-c2c(C(=O)N[C@H]3CCOc4ccccc43)cnc3c(-c4cccc(Cl)c4Cl)cccc23)c1=O [Example 321] |  |  | 3.37 |
| CN(CCN1CCCC1=O)c1c(C(=O)N[C@H]2CCOc3ccccc32)cnc2c(-c3cc(Cl)cc(Cl)c3)cccc12 [Example 328] |  |  | 3.3 |
| O=C(N[C@H]1CCOc2ccccc21)c1cnc2c(-c3cc(Cl)cc(Cl)c3)cccc2c1C1CC1 [Example 358] |  |  | 4.9 |

Same assay, conditions: acidic range, 0.1% formic acid in water / acetonitrile

| SMILES | logP (Method L0)[a] |
| --- | --- |
| CCOC(=O)c1cnc2c(-c3cc(F)cc(F)c3F)cccc2c1N(C)C [Example 1U-5] | 2.40 |
| CCOC(=O)c1cnc2c(-c3cc(Cl)cc(Cl)c3Cl)c(F)ccc2c1N(C)C [Example 1U-8] | 4.57 |
| CCOC(=O)c1cnc2c(-c3cc(F)cc(F)c3F)c(F)ccc2c1N(C)C [Example 1U-11] | 2.40 |
| CCOC(=O)c1cnc2c(-c3cc(Cl)cc(Cl)c3)cccc2c1N1CCOCC1 [Example 1U-13] | 5.19 |
| CCOC(=O)c1cnc2c(-c3cccc(Cl)c3Cl)cccc2c1N1CCOCC1 [Example 1U-15] | 3.90 |
| O=C(O)c1cnc2c(-c3cccc(Cl)c3Cl)cccc2c1N1CCOCC1 [Example 1W-15] | 1.86 |
